The source made the active and inactive calls.

A word on the EC50: it is the concentration giving half of the maximal effect. Broadly, the AC50 is the concentration giving half of the maximal activity seen.

Experiment [1] deals with T1, Zinc finger protein mex-5 (Caenorhabditis elegans, UniProt Q9XUB2).
T1 sequence (Q9XUB2 whole entry): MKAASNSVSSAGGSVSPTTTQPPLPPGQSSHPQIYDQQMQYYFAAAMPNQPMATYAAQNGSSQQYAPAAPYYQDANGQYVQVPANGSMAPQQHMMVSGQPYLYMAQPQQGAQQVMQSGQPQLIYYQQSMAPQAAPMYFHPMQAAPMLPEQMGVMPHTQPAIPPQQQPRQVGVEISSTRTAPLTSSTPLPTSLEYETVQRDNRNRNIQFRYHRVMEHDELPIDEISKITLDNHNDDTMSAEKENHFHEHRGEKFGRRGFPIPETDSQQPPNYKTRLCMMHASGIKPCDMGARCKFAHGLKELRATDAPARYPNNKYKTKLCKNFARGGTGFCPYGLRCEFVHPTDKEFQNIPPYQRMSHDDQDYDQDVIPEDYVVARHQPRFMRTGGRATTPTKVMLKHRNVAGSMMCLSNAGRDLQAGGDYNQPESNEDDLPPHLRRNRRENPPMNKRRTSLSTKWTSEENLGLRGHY
Description: potency of MEX-5 RNA-binding blockers – biochemical, C. elegans, fluorescence polarization, dose response (AID 1960). A general note: Fluorescence polarisation rises when a labelled molecule tumbles more slowly, as on binding a larger partner.

The target in experiment [2] is Female germline-specific tumor suppressor gld-1 (Caenorhabditis elegans, UniProt Q17339). Description: blockers of GLD-1/TGE RNA complex formation – biochemical, fluorescence polarization, C. elegans, dose response (AID 2802).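 Also: fluorescence polarization of labeled TGE RNA bound by purified gld-1 protein.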
Chain of Female germline-specific tumor suppressor gld-1 (Q17339 whole entry): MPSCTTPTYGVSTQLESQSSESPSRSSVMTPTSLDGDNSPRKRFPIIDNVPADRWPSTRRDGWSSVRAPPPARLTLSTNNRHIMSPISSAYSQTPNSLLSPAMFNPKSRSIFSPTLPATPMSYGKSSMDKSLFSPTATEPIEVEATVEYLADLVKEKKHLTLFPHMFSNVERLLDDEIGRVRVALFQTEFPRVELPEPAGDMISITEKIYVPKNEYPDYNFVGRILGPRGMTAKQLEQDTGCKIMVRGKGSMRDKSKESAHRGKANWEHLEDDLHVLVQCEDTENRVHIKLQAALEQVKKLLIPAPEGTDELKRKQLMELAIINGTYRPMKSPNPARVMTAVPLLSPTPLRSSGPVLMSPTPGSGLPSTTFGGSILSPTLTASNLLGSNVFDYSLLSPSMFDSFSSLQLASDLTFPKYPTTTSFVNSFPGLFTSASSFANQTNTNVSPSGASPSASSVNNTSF
Experiment [3] deals with T2, RNA-binding protein pos-1 (Caenorhabditis elegans, UniProt G5EF15).
T2 sequence (G5EF15 whole entry): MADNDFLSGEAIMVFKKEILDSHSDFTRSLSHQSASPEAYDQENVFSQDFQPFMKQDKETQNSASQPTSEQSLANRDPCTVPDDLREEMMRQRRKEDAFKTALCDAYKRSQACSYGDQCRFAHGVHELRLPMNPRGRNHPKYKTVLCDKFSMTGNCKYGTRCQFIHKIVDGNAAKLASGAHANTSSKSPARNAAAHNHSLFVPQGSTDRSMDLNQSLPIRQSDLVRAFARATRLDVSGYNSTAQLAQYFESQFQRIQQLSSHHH
Description: disruptors of C. elegans POS-1 RNA interaction – biochemical, fluorescence polarization, dose response (AID 1964).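 Also: purified POS-1 fused to maltose binding protein made in E. coli; potency of compounds blocking POS-1 binding to fluorescent RNA.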

A short description of experiment [4]: reduction of Shn3 3'UTR-driven luciferase in osteoblasts – cell-based, Clone20 osteoblasts, firefly luciferase, cherry-picked, dose response (AID 624132).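 Also: firefly luciferase luminescence from reporter carrying the Shn3 3'UTR in osteoblasts.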 Format: functional.
The next experiment deals with Protein Rev (Human immunodeficiency virus type 1 group M subtype B (isolate HXB2)(HIV-1), UniProt P04618). Description: blockers of HIV Rev/RRE RNA complex – biochemical, fluorescence polarization, HIV-1, dose response (AID 434976). Set-up: species or system Human immunodeficiency virus 1.
Chain of Protein Rev (P04618 whole entry): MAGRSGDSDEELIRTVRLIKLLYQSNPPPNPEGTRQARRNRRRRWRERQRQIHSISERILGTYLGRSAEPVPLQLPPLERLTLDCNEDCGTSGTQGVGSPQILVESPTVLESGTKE
Experiment [5] can be described thus: non-specific 3'UTR reporter inhibition in Clone20-Shn3RL – cell-based, Renilla luciferase, cherry-picked, counter-screen for Shn3 inhibitor project, dose response (AID 624133). Format: functional. For orientation: The purpose of a counterscreen is to sort out artefacts and off-target activity.
The nature of experiment [6]: off-target signal loss in HeLa-CEM21 co-culture – HeLa F-luc CTL cells, cherry-picked, counter-screen for HIV-1 Env fusion inhibitor project, dose response (AID 652040).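 Also: potency for signal decrease marking cytotoxic or nonspecific inhibition.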 In kind it is functional, cell-based.
Experiment [7] is described as follows: NIH-3T3 fibroblast cytotoxicity, dose response, cytotoxicity control, cell-based, fluorescence, Alamar Blue, secondary assay (AID 2327).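 Also: NIH-3T3 mouse fibroblasts cultured with fluconazole at 8 µg/mL.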 In kind it is functional. On the technique in general: Resazurin is reduced to fluorescent resorufin, in cell work by metabolically active cells.
Experiment [8] can be described thus: blockers of HIV-1 envelope-mediated cell-cell fusion – cherry-pick, dose response (AID 652057). In kind it is functional, cell-based.
Experiment [9] can be described thus: blockers of HIV-1 ZM109 envelope-driven cell-cell fusion – HeLa effector, CEM target cells, luciferase, cherry-pick, dose response (AID 652058).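 Also: luciferase signal from HIV-1 Env mediated cell-cell fusion of effector and target cells.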 Format: functional, cell-based.
A short description of experiment [10]: viability of PTEN-deleted HCT116 cells – cell-based, HCT116 PTEN knockout, dose response (AID 1047).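 Also: HCT116 colon tumor cells with PTEN knocked out; cells exposed to compound for 60 hours before readout; potency for loss of cell viability measured by luminescence.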 Format: functional.
The target of the next experiment is Phospholipase A2 (Homo sapiens, UniProt P04054). Format: functional.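 Also: confirmatory dose-response counterscreen on phospholipase A2, testing hits that came from an ultra-high-throughput screen for ATG4B inhibitors.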
Chain of Phospholipase A2 (P04054 whole entry): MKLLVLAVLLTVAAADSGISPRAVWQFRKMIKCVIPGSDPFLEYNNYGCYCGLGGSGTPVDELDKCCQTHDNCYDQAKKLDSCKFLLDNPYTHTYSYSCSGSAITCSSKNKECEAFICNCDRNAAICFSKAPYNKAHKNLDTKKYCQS
The nature of experiment [11]: fluconazole-exposed Candida albicans growth modulators – fluorescence, retest, confirmation (AID 2467). In kind it is functional, cell-based.
Another experiment concerns the target T3, Cysteine protease ATG4B (Homo sapiens, UniProt Q9Y4P1).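 Also: Fluorescence-based dose-response confirmation assay measuring inhibition of ATG4B activity.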
T3 sequence (Q9Y4P1 whole entry): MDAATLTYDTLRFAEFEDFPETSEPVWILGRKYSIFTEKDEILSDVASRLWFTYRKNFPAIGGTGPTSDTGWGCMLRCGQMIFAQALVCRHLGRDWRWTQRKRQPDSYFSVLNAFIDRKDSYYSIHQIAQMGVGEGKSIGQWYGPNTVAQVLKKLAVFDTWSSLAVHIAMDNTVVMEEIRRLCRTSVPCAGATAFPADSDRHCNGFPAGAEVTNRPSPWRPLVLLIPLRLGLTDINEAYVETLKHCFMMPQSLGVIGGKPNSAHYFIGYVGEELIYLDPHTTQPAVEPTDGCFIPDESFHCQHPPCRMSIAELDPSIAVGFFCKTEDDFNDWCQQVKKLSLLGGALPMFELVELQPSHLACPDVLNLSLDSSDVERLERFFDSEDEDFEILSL
In kind it is functional.

Experiment [12] is described as follows: MIN6 cell viability loss – mouse insulinoma, cytotoxicity control, dose response (AID 2122).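 Also: confirmatory high-throughput counterscreen run to flag cytotoxic compounds.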 Format: functional.
Experiment [13] in a line: viability of HCT116 lacking mutant beta-catenin – cell-based, human colon tumor, dose response (AID 1045).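 Also: HCT116 colon tumor cells with beta catenin knocked out; cells exposed to compound for 60 hours.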 Format: functional.
The nature of experiment [14]: HIV-1 AD8 envelope cell-cell fusion blockers – cherry-pick, dose response (AID 652062).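 Also: luciferase signal from cell-cell fusion driven by HIV-1 clade B AD8 Env; potency is for inhibitors of fusion seen as a drop in luminescence.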 In kind it is functional, cell-based.
A short description of experiment [15]: decrease of insulin promoter-GFP reporter – imaging, high-content screening, mouse beta cells (AID 1628). In kind it is functional. The note with it: MIN6.
Experiment [16] can be described thus: viability loss in CEM21 cells – cell-based, CellTiter-Glo luminescence, cherry-picked, cytotoxicity control for viral fusion inhibitor project, dose response (AID 652042).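 Also: potency for signal decrease meaning cytotoxicity.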 In kind it is functional.
Experiment [17] addresses T4, Ubiquitin-conjugating enzyme E2 N (Homo sapiens, UniProt P61088).
T4 sequence (P61088 whole entry): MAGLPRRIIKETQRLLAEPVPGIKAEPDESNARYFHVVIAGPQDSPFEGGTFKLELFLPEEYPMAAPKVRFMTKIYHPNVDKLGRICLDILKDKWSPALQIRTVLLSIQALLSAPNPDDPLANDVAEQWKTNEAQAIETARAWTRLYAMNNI
In kind it is functional.

A further experiment concerns the target X-box-binding protein 1 (Homo sapiens, UniProt P17861). Format: functional, Cricetulus griseus.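 Also: confirmatory dose-response counter-screen serving a CHOP assay.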
The target of experiment [18] is T5, Probable nicotinate-nucleotide adenylyltransferase (Staphylococcus aureus (strain N315), UniProt P65502). In kind it is functional, Staphylococcus aureus subsp. aureus N315. The note with it: read-out: IC50_Mean.
T5 sequence (P65502 whole entry): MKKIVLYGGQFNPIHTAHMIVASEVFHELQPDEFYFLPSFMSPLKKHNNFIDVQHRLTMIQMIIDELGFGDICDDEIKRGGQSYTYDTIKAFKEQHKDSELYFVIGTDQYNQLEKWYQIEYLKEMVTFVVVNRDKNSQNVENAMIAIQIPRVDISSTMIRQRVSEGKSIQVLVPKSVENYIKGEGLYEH
The target of experiment [19] is T6, Small ubiquitin-related modifier 1 (Homo sapiens, UniProt P63165). Description: SUMO1 protein-protein binding blockers, potency – biochemical, FRET, dose response (AID 624383). In kind it is functional. As to conditions: read-out: IC50_Mean.
T6 sequence (P63165 whole entry): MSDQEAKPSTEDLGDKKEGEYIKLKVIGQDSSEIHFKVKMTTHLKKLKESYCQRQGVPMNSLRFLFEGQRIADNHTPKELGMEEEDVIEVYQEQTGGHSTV
The target of experiment [20] is T7, Rac GTPase-activating protein 1 (Homo sapiens, UniProt Q9H0H5).
T7 sequence (Q9H0H5 whole entry): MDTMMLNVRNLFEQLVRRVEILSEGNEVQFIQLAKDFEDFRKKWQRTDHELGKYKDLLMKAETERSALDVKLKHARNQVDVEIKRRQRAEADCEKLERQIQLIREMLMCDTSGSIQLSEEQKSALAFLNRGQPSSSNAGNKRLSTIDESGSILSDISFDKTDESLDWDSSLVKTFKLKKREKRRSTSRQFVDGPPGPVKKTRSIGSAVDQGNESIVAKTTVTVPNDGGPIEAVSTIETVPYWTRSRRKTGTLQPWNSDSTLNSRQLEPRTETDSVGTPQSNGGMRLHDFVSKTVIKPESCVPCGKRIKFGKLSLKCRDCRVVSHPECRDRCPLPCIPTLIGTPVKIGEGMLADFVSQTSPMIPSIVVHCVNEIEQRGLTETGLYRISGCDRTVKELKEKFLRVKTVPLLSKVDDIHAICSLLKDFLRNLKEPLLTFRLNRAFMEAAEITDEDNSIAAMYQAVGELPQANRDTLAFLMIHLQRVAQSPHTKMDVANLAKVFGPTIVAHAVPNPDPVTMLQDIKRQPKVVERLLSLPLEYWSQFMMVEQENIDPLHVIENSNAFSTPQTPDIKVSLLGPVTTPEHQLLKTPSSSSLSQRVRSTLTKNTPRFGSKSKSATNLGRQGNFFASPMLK
Put plainly: blockers of MgcRacGAP-driven Rac1 GTP hydrolysis – biochemical, ADP Hunter fluorescence, primary and confirmatory, confirmation (AID 624330). In kind it is functional.

Experiment [21] deals with T6, Small ubiquitin-related modifier 1. Description: SUMO1 protein interaction blockers, potency – biochemical, fluorescence polarization, uHTS hits, dose response (AID 624382). Format: functional. As to conditions: read-out: IC50_Mean.
Experiment [22] has as its target T5, Probable nicotinate-nucleotide adenylyltransferase. Format: functional, Staphylococcus aureus subsp. aureus N315.
Another experiment has as its system HeLa. Description: viability loss in HeLa cells – cell-based, 24 h, cherry-picked samples, cytotoxicity control, dose response (AID 504726).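 Also: potency for cytotoxicity as loss of luminescence signal.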 As to conditions: Homo sapiens. In kind it is functional.
A further experiment deals with ORF 73 (Human herpesvirus 8, UniProt O40947). Description: KSHV LANA DNA-binding disruption – biochemical, fluorescence polarization, cherry-picked samples, dose response (AID 504725).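 Also: fluorescence polarization of a labeled DNA duplex reporting LANA DNA binding; potency is for inhibitors that block LANA binding to the DNA.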 Details: species or system Human gammaherpesvirus 8.
Chain of ORF 73 (O40947 whole entry): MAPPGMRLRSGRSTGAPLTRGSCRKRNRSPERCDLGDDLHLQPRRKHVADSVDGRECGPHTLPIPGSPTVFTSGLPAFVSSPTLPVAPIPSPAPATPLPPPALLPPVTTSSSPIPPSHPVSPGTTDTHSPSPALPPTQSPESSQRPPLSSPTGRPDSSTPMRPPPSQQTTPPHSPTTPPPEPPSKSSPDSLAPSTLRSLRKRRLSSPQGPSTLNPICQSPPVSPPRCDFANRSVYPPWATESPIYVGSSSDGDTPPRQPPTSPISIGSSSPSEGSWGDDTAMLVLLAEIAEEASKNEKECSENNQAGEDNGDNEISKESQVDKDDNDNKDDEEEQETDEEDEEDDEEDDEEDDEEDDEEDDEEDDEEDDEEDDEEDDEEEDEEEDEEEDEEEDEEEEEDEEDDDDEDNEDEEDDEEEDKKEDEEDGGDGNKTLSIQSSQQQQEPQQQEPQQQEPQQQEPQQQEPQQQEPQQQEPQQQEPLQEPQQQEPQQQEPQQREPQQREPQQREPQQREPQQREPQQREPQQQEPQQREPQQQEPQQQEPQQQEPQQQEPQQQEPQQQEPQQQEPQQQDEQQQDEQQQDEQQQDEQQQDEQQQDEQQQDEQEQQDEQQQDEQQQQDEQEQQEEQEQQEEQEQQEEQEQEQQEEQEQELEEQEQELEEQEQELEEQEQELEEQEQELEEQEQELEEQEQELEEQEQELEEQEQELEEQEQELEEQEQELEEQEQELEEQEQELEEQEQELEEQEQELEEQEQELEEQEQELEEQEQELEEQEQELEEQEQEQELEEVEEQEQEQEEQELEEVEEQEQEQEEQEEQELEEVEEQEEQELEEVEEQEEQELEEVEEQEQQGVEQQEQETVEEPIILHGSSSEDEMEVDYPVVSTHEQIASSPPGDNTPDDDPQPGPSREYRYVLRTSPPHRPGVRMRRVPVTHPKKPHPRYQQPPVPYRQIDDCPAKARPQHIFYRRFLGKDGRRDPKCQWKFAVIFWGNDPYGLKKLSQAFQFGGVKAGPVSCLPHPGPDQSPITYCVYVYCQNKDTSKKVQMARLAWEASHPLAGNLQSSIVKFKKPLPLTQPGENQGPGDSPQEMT
In experiment [23] the target is T8, Kappa-type opioid receptor (Homo sapiens, UniProt P41145). Description: kappa opioid receptor blockers, image-based, SAR follow-up (AID 2348). In kind it is functional.
T8 sequence (P41145 whole entry): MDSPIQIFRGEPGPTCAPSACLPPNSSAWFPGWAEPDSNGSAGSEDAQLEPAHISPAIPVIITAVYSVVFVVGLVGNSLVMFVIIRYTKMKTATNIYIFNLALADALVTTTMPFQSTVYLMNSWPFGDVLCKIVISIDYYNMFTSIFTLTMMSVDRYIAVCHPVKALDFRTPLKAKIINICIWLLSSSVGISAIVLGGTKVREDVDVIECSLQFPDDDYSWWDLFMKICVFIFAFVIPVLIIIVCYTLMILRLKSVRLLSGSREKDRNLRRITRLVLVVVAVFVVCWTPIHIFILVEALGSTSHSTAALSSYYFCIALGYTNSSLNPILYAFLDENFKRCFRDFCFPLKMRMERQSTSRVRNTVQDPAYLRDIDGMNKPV
In experiment [24] the target is T9, Mu-type opioid receptor (Homo sapiens, UniProt P35372). Description: mu opioid receptor blockers – image-based, SAR follow-up (AID 2420).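 Also: compounds added before stimulation of receptor with agonist DAMGO.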 Format: functional.
T9 sequence (P35372 whole entry): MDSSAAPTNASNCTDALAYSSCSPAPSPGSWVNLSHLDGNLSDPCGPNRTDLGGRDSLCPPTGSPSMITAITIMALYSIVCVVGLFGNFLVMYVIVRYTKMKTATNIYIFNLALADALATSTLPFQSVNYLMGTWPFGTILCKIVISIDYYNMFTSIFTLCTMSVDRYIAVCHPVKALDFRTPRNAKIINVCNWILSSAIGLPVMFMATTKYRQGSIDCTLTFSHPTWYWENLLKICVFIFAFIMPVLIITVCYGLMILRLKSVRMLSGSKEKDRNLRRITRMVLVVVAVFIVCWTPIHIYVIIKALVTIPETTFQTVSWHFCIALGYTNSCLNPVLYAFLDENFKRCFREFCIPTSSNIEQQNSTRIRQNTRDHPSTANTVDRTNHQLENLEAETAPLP
The target in experiment [25] is T8, Kappa-type opioid receptor. Description: kappa opioid receptor activation potency – imaging, image-based, SAR follow-up (AID 2359). Format: functional.
Experiment [26] deals with T10, Delta-type opioid receptor (Homo sapiens, UniProt P41143). Put plainly: DOR agonists, SAR follow-up, image-based (AID 2370). In kind it is functional.
T10 sequence (P41143 whole entry): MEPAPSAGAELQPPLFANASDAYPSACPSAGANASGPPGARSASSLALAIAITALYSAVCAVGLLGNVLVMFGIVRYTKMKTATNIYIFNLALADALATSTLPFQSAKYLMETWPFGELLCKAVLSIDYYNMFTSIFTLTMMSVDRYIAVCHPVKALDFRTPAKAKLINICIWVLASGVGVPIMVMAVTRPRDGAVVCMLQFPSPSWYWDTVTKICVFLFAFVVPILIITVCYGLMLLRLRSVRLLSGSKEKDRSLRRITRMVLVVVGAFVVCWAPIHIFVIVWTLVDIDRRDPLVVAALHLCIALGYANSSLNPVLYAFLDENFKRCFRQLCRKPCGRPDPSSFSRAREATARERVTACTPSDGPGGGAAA
The target in experiment [27] is T10, Delta-type opioid receptor. Put plainly: delta opioid receptor blockers – image-based, SAR follow-up (AID 2357). Format: functional.
Experiment [28] concerns the target T8, Kappa-type opioid receptor. Put plainly: kappa opioid receptor blockers, cell-based, luminescence, beta-arrestin, SAR follow-up (AID 2285). In kind it is functional.
For experiment [29], the target named is T9, Mu-type opioid receptor. Description: mu opioid receptor activators, image-based, SAR follow-up (AID 2352). In kind it is functional.

Chain of X-box-binding protein 1 (P17861 whole entry): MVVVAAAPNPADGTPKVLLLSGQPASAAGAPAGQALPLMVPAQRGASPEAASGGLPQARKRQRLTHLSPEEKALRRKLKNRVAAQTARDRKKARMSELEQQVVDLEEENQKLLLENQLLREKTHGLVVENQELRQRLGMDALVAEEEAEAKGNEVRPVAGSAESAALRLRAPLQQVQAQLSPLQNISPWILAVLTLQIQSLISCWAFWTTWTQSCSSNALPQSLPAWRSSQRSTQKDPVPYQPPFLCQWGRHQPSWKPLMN

`CCOC(=O)Cn1c(=O)c(-c2cc(Br)ccc2N)nc2ccccc21`: the 50% effective concentration (EC50) in [1] is 26.1 µM (inconclusive); in [3], > 300 µM (inconclusive). In addition, the IC50 was 25.4 µM (inactive) in experiment [2] and 4.53 µM (active) at Protein Rev. For the same compound, the AC50 was 0.758 µM (active) in experiment [4] and 0.833 µM (active) in [5].
As to `Cc1cc(Nc2ccc(Cl)cc2)nc(NCc2ccccc2)n1`, the AC50 was 4.05 µM (active) in experiment [6]; 2.98 µM (active) in experiment [8]; 3.31 µM (active) in [9]; 8.5 µM (active) in experiment [14]; 15.3 µM (active) in experiment [16]. Also, the EC50 in experiment [7] was > 150 µM (inactive); in [10] it was 5.72 µM (active); in experiment [11] it was 2.45 µM (active); in experiment [13], 6.7 µM (active). Moreover, the IC50 at Phospholipase A2 is 15.4 µM (active); at Cysteine protease ATG4B it was 10.9 µM (active); in [12] it was 0.878 µM (active); in experiment [15], 1.51 µM (active); in experiment [17], > 20 µM (inactive). The “Absolute IC50 (XBP1)” value at X-box-binding protein 1 was less than 10 µM.
Consider `O=S(=O)(O)c1cc(O)c2ccc(Nc3ccccc3)cc2c1`, for which the IC50 in [18] was 40.3 µM (active); in experiment [19] it was 2.16 µM (active); in experiment [20], 40.9 µM (active); in [21], > 66.6 µM (inactive); in [22] it was 15.9 µM (active). In addition, the half-maximal activity concentration (AC50) in the experiment on HeLa was 241 µM (active); at ORF 73 it was 95.9 µM (active).
As to `Cc1ccc(C)c(N2CCN(CCCNC(=O)Cn3c(=O)c4cccn4c4cccnc43)CC2)c1`, the IC50 in experiment [23] is 20.5 µM (inactive); at Mu-type opioid receptor [24] it was > 32 µM (inactive); in experiment [27], > 32 µM (inactive); in experiment [28], > 10 µM (inactive). The EC50 (in experiment [25]; in experiment [26]; at Mu-type opioid receptor [29]) was > 32 µM (inactive) each time.

For the origin of these results see ChEMBL document CHEMBL1201862, “PubChem BioAssay data set” (2004).
